Measurements taken from patent US4515722A, “Phosphatidyl inositol analogs useful as anti-inflammatory/analgesic agents” (Merck & Co., Inc., priority 1982, dated 1985).

Assays:
phospholipase C = details: background statement; cited from earlier work
[1] = tested on: Phosphatidyl inositol-specific phospholipase C; assay: Phosphatidyl inositol-specific phospholipase C assay with sonicated human platelets; format: biochemical
Experimental: A. Protocol--Phosphatidyl inositol-specific phospholipase C assays. The assays were performed as follows: A mixture of PI (Sigma) and (^3 H-inositol)-PI in CHCl3 are blown to dryness under N2 and sonicated into a buffer containing DOC and CaCl2 so that the final concentrations in each 200 λ assay are:
0.5 mg/ml DOC containing an appropriate amount of an active compound
in 50 mM Hepes, 100 mM NaCl, 0.5 mg/ml BSA pH 7.
An aliquot of sonicated human platelets, 5×10^9 /ml, is added; the reaction is stopped after 10 minutes with a chloroform/methanol/H2 O solution and the upper water phase is counted to detect water-soluble inositol counts. The pH was checked during each assay using pH paper to verify that none of the compounds affected this parameter.

[2] = Table II, Concentration 0.20 mM

c1ccc2c(c1)Nc1ccccc1S2 [phenothiazine]
inhibition of phospholipase C (phospholipase C): inhibited

CCCCCCCC(=O)OCC(CCP(=O)(O)OC1C(O)C(O)C(O)C(O)C1O)OC(=O)CCCCCCC (stereo not shown) [n-C7 H15 CO, 3,4-Dioctanoyloxybutyl-1-phosphonyl-myo-inositol]
% Inhibition ([1]; Table I, Conc. 1.0 mM): 64%

CCCCCCCCCCCCCCCCCCP(=O)(O)O[C@@H]1[C@H](O)[C@H](O)[C@@H](O)[C@H](O)[C@H]1O (relative stereo) [1-O--(octadecylphosphonyl)-myo-inositol]
% Inhibition ([1]; Table II, Concentration 0.105 mM): 12%
% Inhibition ([1]; Table II, Concentration 1.05 mM): 66%

CCCCCCCCCCCCCCCCCCP(=O)(O)O[C@H]1[C@H](O)[C@@H](O)[C@H](OP(=O)(O)CCCCCCCCCCCCCCCCCC)[C@@H](O)[C@H]1O (relative stereo) [1,4-di(octadecylphosphonyl)-myo-inositol]
% Inhibition ([1]; Table II, Concentration 0.033 mM): 18%
% Inhibition ([1]; Table II, Concentration 0.33 mM): 37%

CCCCCCCCCCCCCCCCCCP(=O)(O)OC1C(O)C(O)C(O)C(O)C1O (stereo not shown) [5-O--(octadecylphosphonyl)-myo-inositol]
% Inhibition ([1]; Table II, Concentration 0.050 mM): 27%
% Inhibition [1, 2]: 60%
% Inhibition ([1]; Table II, Concentration 1.00 mM): 81%

CCCCCCCCCCCCP(=O)(O)O[C@@H]1[C@H](O)[C@H](O)[C@@H](O)[C@H](O)[C@H]1O (relative stereo) [1-O--(dodecylphosphonyl)-myo-inositol]
% Inhibition [1, 2]: 51%
% Inhibition ([1]; Table II, Concentration 2.0 mM): 82%

CCCCCCCCCCCCP(=O)(O)O[C@H]1[C@H](O)[C@@H](O)[C@H](OP(=O)(O)CCCCCCCCCCCC)[C@@H](O)[C@H]1O (relative stereo) [Example 20, 1,4-di-O-(dodecylphosphonyl)myo-inositol]
% Inhibition ([1]; Table II, Concentration 0.043 mM): 20%
% Inhibition ([1]; Table II, Concentration 0.432 mM): 64%

CCCCCCCCCC(=O)OC(CCP(=O)(O)OC1C(O)C(O)C(O)C(O)C1O)COC(=O)CCc1ccc(Oc2ccccc2)cc1 (stereo not shown) [.0.O.0.CH2 CH2 CO]
% Inhibition ([1]; Table I, Conc. 0.1 mM): 47%
% Inhibition ([1]; Table I, Conc. 0.5 mM): 66%
% Inhibition ([1]; Table I, Conc. 1.0 mM): 76%

CCCCCCCCCCCCCCCC(=O)OCC(CCP(=O)(O)OC1C(O)C(O)C(O)C(O)C1O)OC(=O)CCCCCCCCCCCCCCC (stereo not shown) [n-C15 H31 CO, 3,4-Dipalmitoyloxybutyl-1-phosphonyl-myo-inositol]
% Inhibition ([1]; Table I, Conc. 0.05 mM): 37%
% Inhibition ([1]; Table I, Conc. 0.5 mM): 82%
% Inhibition ([1]; Table I, Conc. 1.0 mM): 84%

CCCCCCCCCC(=O)OCC(CCP(=O)(O)OC1C(O)C(O)C(O)C(O)C1O)OC(=O)CCCCCCCCC (stereo not shown) [n-C9 H19 CO, 3,4-Didecanoyloxybutyl-1-phosphonyl-myo-inositol]
% Inhibition ([1]; Table I, Conc. 1.0 mM): 68%

CCCCCCCCCCCCCCCCCCP(=O)(O)O[C@H]1[C@H](O)[C@@H](O)[C@H](O)[C@@H](O)[C@]1(O)CO (relative stereo) [DL-2-C--hydroxymethyl-1-O--octadecanephosphonyl-myo-inositol]
% Inhibition ([1]; Table II, Concentration 0.115 mM): 51%
% Inhibition ([1]; Table II, Concentration 1.15 mM): 89%

CCCCCCCC(=O)OCC(CCP(=O)(OC)OC1C(O)C(O)C(O)C(O)C1O)OC(=O)CCCCCCC (stereo not shown) [(M) (M) CH3]
% Inhibition ([1]; Table I, Conc. 0.5 mM): 50%
% Inhibition ([1]; Table I, Conc. 1.0 mM): 72%

CCCCCCCCCCCCCCCCCCP(=O)(O)O[C@H]1[C@H](O)[C@@H](O)[C@H](O)[C@@H](O)[C@H]1OC (relative stereo) [DL-2-O--methyl-1-O--(octadecylphosphonyl)-myo-inositol]
% Inhibition ([1]; Table II, Concentration 0.122 mM): 53%
% Inhibition ([1]; Table II, Concentration 1.22 mM): 83%

CCCCCCCCCC(=O)OC(CCP(=O)(O)OC1C(O)C(O)C(O)C(O)C1O)COC(=O)Cc1ccc(-c2ccccc2)cc1 (stereo not shown) [.0.-.0.CH2 CO, 3-Decanoyloxy-4-(p-diphenylacetyloxy)-butyl-1-phosphonyl-myo-inositol]
% Inhibition ([1]; Table I, Conc. 0.5 mM): 61%
% Inhibition ([1]; Table I, Conc. 1.0 mM): 75%
